US20250026754A1, “SMALL MOLECULE INHIBITORS OF UBIQUITIN SPECIFIC PROTEASE 1 (USP1) AND USES THEREOF” (INSILICO MEDICINE IP LIMITED, priority 2021, published 2025)

Tested on: MDA-MB-436 cells
Assay: MDA-MB-436 breast cancer cell proliferation assay (CellTiter-Glo)
Assay type: cell-based
Conditions: Homo sapiens, 168 h, 7 days
Protocol: MDA-MB-436 cells were grown in Leibovitz's L-15 medium with 10 μg/ml insulin, 16 μg/ml glutathione, 10% FBS. Cells were passaged at subconfluence after trypsinization and maintained in incubators at 37° C. in a humidified atmosphere with 5% CO2.
Cell proliferation was determined using CellTiter-Glo® Luminescent Cell Viability Assay (Promega, #G7573). MDA-MB-436 cells were seeded in 384-well plates and allowed to attach for 24 h. Compounds were added into 384-well plate by ECHO, and incubated at 37 C° in a humidified atmosphere with 5% CO2. After 7 days, CellTiter-Glo was added into 384 well plates, contents were mixed on an orbital shaker at […] for 2 min before centrifuging the plate for 2 min at 1000 rpm. After incubation at RT for 30 min, luminescence was read on envision.

- IC50: 50 to 1000 nM
Compound: COc1ncnc(C2CC2)c1-c1nn(C)c2c1CN(c1ccc(-n3nc(C(F)(F)F)cc3C)cn1)CC2 [Example 15, 3-(4-cyclopropyl-6-methoxypyrimidin-5-yl)-1-methyl-5-(5-(5-methyl-3-(trifluoromethyl)-1H-pyrazol-1-yl)pyridin-2-yl)-4,5,6,7-tetrahydro-1H-pyrazolo[4,3-c]pyridine]
